Reference: patent publication US10227324B2 (Shanghai Haiyan Pharmaceutical Technology Co., Ltd., priority 2014, dated 2019)
Where two headings read alike, the source gives them in different places.

How the values were obtained:
[1] = target: T1, PI3K-α kinase (p110α/p85α) (Homo sapiens, UniProt P42336); assay: Determination of PI3K kinase activity (ADP Transcreener, fluorescence polarization); format: biochemical; conditions: ATP 10 μM
T1 construct: purchased Invitrogen PV4788

[2] = target: T2, PI3K-β kinase (p110β/p85α) (Homo sapiens, UniProt P42338); assay: as above; format: biochemical; conditions: Table 1; ATP 10 μM; read-out: PI3K-β/nM (IC50 of inhibitory activity against PI3K kinase)
T2 construct: purchased Millipore 14-603
T2 sequence (P42338 whole entry): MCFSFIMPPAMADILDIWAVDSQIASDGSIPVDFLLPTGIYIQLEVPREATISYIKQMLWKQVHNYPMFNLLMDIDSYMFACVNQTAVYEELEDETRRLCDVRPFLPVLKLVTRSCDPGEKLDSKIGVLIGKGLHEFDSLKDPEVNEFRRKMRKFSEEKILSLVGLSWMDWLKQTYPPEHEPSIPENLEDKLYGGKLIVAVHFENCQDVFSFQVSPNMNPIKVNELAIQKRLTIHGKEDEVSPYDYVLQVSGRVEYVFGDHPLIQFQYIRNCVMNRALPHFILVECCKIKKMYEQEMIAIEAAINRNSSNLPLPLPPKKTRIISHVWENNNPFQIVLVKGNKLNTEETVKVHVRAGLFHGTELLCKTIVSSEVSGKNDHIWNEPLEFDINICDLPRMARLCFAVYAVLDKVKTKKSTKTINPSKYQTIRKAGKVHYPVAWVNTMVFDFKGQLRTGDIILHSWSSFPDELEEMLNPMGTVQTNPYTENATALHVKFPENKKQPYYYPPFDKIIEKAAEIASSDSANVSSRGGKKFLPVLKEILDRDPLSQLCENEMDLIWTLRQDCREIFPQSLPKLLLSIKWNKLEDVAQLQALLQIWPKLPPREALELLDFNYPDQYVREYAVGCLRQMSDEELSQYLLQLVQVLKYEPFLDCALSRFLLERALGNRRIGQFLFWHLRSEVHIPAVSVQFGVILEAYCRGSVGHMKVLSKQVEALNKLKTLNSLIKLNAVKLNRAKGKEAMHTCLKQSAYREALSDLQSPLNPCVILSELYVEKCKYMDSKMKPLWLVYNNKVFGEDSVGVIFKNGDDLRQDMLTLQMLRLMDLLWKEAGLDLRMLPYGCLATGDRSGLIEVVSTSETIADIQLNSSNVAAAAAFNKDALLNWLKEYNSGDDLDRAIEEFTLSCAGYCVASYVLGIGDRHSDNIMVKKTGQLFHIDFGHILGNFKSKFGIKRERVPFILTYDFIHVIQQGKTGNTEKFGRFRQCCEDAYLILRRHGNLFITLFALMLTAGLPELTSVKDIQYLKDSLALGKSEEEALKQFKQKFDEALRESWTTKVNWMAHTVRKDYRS
T2 sequence (P27986 whole entry partner): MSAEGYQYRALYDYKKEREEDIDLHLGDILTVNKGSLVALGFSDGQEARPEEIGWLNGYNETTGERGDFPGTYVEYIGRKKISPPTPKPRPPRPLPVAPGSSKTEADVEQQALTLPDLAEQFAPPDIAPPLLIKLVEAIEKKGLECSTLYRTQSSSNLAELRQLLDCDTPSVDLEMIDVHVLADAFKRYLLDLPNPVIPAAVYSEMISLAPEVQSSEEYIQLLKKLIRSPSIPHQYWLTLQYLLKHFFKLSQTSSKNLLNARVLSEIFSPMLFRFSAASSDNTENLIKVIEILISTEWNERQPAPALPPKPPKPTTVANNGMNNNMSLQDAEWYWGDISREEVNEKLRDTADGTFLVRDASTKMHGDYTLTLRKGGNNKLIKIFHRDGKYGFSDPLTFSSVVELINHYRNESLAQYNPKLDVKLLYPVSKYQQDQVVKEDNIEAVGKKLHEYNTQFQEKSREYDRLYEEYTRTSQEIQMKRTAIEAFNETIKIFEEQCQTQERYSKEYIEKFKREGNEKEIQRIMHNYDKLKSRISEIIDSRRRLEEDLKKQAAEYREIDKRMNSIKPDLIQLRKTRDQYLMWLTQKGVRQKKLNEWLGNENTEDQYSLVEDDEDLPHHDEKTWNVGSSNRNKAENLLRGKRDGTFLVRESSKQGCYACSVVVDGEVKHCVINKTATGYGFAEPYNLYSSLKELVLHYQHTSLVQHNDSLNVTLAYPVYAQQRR

[3] = target: T3, PI3K-δ kinase (p110δ/p85α) (Homo sapiens, UniProt O00329); assay: as above; format: biochemical; conditions: Table 1; ATP 10 μM; read-out: PI3K-δ/nM (IC50 of inhibitory activity against PI3K kinase)
T3 construct: purchased Millipore 14-604M
T3 sequence (O00329 whole entry): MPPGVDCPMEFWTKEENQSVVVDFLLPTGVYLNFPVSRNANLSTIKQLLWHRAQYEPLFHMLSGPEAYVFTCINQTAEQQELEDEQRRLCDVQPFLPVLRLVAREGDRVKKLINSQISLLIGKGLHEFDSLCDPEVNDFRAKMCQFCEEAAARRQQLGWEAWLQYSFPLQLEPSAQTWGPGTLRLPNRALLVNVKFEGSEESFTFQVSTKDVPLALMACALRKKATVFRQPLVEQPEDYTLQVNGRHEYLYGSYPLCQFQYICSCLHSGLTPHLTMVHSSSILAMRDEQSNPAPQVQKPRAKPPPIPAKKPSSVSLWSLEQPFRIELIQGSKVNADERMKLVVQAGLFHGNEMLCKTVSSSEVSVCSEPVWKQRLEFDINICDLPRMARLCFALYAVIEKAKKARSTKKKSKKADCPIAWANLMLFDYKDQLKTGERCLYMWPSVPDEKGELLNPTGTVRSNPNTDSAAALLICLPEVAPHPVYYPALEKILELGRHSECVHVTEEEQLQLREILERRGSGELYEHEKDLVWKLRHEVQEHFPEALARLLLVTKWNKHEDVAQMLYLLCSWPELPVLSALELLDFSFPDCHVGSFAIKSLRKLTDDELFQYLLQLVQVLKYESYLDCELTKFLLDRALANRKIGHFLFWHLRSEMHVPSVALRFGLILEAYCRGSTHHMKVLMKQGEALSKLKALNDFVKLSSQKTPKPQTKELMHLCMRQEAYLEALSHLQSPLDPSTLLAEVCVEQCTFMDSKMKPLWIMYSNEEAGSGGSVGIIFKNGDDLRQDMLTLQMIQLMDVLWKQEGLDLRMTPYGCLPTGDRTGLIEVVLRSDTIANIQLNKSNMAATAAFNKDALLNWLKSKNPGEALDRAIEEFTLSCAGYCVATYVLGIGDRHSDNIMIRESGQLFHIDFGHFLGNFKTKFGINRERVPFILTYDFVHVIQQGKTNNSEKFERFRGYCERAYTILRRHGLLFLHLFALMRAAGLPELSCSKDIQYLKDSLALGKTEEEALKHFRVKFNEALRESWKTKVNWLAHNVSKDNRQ
T3 sequence (P27986 whole entry partner): as the sequence (P27986 whole entry partner) above

[4] = tested on: Akt phosphorylation (Ser473-p-Akt) in PC-3 cells; assay: Inhibition of p-Akt phosphorylation level in PC-3 cells (cell level fluorescence imaging); format: cell-based; conditions: Homo sapiens; Akt phosphorylation in PC-3 cells, 2 hours incubation; read-out: PC-3 cell (IC50/nM)
Procedure, shortened: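 Inhibition was computed from p-Akt(Ser473) immunofluorescence scaled to DMSO-treated wells (full signal) and 10 μM BEZ235 wells (background). Cells were treated for 2 h with an 8-point, 3-fold series from 0.0046 to 10 μM in duplicate before fixation, antibody staining with PI counterstain, and plate imaging.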

[5] = Table 1, read-out: PI3K-α/nM (IC50 of inhibitory activity against PI3K kinase)
[6] = Table 2, read-out: PI3K-α/nM (IC50 of inhibitory activity against PI3K-α kinase)

T1 sequence (P42336 whole entry): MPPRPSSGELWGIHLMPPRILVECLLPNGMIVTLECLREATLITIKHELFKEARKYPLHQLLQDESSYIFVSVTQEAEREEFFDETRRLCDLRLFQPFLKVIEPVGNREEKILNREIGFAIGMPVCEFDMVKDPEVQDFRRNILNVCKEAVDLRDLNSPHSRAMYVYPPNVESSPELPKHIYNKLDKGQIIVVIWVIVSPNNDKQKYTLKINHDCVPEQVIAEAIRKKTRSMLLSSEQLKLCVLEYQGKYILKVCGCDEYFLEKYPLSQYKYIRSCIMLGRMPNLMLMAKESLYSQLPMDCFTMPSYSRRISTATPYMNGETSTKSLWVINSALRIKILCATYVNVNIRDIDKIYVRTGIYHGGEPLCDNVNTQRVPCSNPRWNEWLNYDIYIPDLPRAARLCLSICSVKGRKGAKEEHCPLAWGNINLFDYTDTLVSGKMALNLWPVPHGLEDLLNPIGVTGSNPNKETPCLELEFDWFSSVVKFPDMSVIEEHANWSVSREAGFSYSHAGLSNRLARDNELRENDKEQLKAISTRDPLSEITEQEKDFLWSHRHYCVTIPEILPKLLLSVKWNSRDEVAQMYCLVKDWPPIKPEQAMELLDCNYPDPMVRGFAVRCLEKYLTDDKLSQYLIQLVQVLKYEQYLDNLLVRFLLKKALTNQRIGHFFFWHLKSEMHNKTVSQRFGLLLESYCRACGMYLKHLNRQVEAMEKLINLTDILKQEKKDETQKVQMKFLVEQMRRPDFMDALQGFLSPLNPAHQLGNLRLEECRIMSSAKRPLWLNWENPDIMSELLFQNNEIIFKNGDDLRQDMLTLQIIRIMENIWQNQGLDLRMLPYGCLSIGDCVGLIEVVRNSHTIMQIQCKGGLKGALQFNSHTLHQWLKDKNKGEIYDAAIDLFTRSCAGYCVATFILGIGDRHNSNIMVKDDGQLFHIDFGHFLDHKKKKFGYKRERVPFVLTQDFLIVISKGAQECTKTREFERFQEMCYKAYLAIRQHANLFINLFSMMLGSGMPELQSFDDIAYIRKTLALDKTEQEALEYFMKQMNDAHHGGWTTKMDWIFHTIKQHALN
T1 sequence (P27986 whole entry partner): as the sequence (P27986 whole entry partner) above

Compound	IC50 [1, 5] [nM]	IC50 [1, 6] [nM]	IC50 [2] [nM]	IC50 [3] [nM]	IC50 [4] [nM]
CC(C)S(=O)(=O)C1(c2cc(-c3cnc(N)cc3F)nc(N3CCOCC3)n2)CC1 [Compound S-86]	26	26	763	397	240
Nc1cc(F)c(-c2cc(C3(S(=O)(=O)C4CC4)CC3)nc(N3CCOCC3)n2)cn1 [Compound S-88]	48	48	521	209	349
CS(=O)(=O)C1(c2cc(N3CCOCC3)nc(-c3cnc(N)cc3C(F)(F)F)n2)CC1 [reference compound]	90		2160	2580	1020
